# Assay results reported in patent US20220003750A1, “FUNCTIONAL SCREEN FOR SMALL MOLECULE AND MONOCLONAL ANTIBODY DRUG SENSITIVITY IN MULTIPLE MYELOMA PATIENTS” (The Regents of the University of Colorado, a body corporate, priority 2018, published 2022).
# Experiments:
# [1] = tested on: primary MM cells in patient bone marrow aspirate MNC cultures; experiment: Myeloma drug sensitivity testing (My-DST): ex vivo 48 h culture of patient bone marrow MNCs, flow cytometry of surviving MM cells
# Excerpt: Extra bone marrow aspirate was collected from patients at University of Colorado Blood Cancer and Bone Marrow Transplant Program after informed consent. Samples from patients with multiple myeloma or smoldering myeloma were obtained from the hematologic malignancies tissue bank with protocol approval from the Western Institutional Review Board. MNCs were isolated from the samples using SepMate Ficoll-Plaque tubes (StemCell Technologies). Normal donor samples were purchased from AllCells. Selection of CD138^+ cells was performed with magnetic bead columns (Miltenyi), only where specifically noted.
# (§1) De-identified primary myeloma samples were thawed and incubated with 100 μg DNase I (Sigma-Aldrich). Samples were washed twice with 10 mL Dulbecco's Phosphate Buffered Saline (DPBS) without calcium and magnesium. Cells were resuspended in RPMI1640 medium containing L-glutamine with 10% FBS and 100 U/mL penicillin and 100 μg/mL streptomycin (Thermo Fisher Scientific) and 2 ng/mL IL-6 (PeproTech) at 37° C. for 2 hours. Cells were then transferred to 96-well plates at 4.5×10^5 cells/mL (90,000 MNCs per well) and drug treated for 48 hours. PIs, IMiDs and Dex were purchased from Thermo Fisher. […] Stock drug solutions were prepared at 10 mM in DMSO and stored at −20° C. until use. Dara was obtained from University of Colorado Health Pharmacy. Clodronate-liposomes were purchased from Encapsula Nanosciences to block macrophage activity.
# (§2) After 48-hour treatment primary samples were washed in 1× cold DPBS and re-suspended in BD Brilliant Stain Buffer (BD Biosciences) in a 96-well v-bottom plate. Cells were treated with FcR Blocking Reagent (Miltenyi Biotec) for 5 minutes and then surface stained with the antibodies anti-CD19-BV786, anti-CD45-BV510, monoclonal anti-CD38-BV421 or multi-epitope anti-CD38-FITC (ALPCO), anti-CD138-BV421 and anti-CD319-APC or anti-CD46 conjugated to Alexa647 with the Antibody Labeling Kit (In Vitrogen). Intracellular staining with anti-kappa-BV605 and anti-lambda-PE light chains was performed after paraformaldehyde fixation and permeabilization. All antibodies were purchased from BD Biosciences, except as noted. After staining, samples were washed with 100 μl DPBS containing 2% FBS (FACS buffer) and re-suspended in 250 μL. Viability staining was done using the LIVE/DEAD Fixable Near-IR Kit (Invitrogen, Carlsbad Calif.). Flow cytometry data was collected using a FACSCelesta (BD) equipped with a high throughput sampler (FITS). For each well a fixed volume of 175 μL was collected by the HTS. Data analysis was completed using FlowJo software.
# To profile response to the agents commonly used in clinic, patient samples were initially screened with a panel including bortezomib (Bor), carfilzomib (Car), lenalidomide (Len), pomalidomide (Pom), Dex and Cy (tested as its active metabolite “4-HC”). MNCs are cultured for 48 hours, followed by flow cytometry to measure the surviving MM cell population. To accurately measure the MM cells on a sample-by-sample basis, cells were labeled for surface expression of CD138, CD38, CD45, CD19, CD319 and CD46. […] In parallel, intracellular flow cytometry for kappa and lambda was used to verify the clonality and individualize the MM population gating (FIG. 1F).
# For rapid screening, single concentrations of each drug were sought that produce an expected decrease in MM cell viability by which to judge sensitivity versus resistance. This was started by establishing the dose response to each drug under the above conditions. Each condition was performed in triplicate and normalized compared to untreated control.
# [2] = tested on: non-plasma cells (NPCs) negative for CD138 and CD38; conditions: 48 h; for viability of nonplasma cells (NPCs) in the cultures: patient samples (FIG. 2A, 7E)
# Description: as §1
# as §2, with “software. […]” for “software.”
# [3] = tested on: nonmalignant plasma cells from normal donor bone marrow; experiment: My-DST quality control: normal donor bone marrow aspirates, nonmalignant plasma cells; assay type: cell-based, human; conditions: 48 h (FIG. 2B, 7F)
# Excerpt: Normal donor samples were purchased from AllCells.
# PIs, IMiDs and Dex were purchased from Thermo Fisher. […] Dara was obtained from University of Colorado Health Pharmacy.
# Data analysis was completed using FlowJo software.
# [4] = patient 614, with progression of disease (FIG. 5D)
compound,measurement,setting,value
"O=P1(N(CCCl)CCCl)NCCCO1 (stereo not shown) [C, cyclophosphamide]",viability of MM cells compared to untreated controls (FIG. 1G),"[1]; 48 h, representative patient sample",reduced viable MM cells
same,EV sensitivity in samples from patients with prior clinical exposure versus naïve,[1]; FIGS. 8C-8F,unchanged
same,change of ex vivo drug sensitivity between biopsies at multiple time points,"[1]; patient 634, multiple relapse time points (FIG. 5E)",remained IMiD and cyclophosphamide resistant
same,change of ex vivo drug sensitivity between biopsies at multiple time points,[1]; patient 646 (FIG. 5F),surprising re-sensitization
same,change of ex vivo drug sensitivity between biopsies at multiple time points,[1]; patient 700 (FIG. 5C),increased sensitivity
same,nonspecific cytotoxicity on the bulk MNC population (FIG. 1G),[2],sometimes showed nonspecific cytotoxicity
same,viability of nonplasma cells (NPCs) in the cultures,[2],occasional exception
"CC(C)C[C@H](NC(=O)[C@H](CCc1ccccc1)NC(=O)CN1CCOCC1)C(=O)N[C@@H](Cc1ccccc1)C(=O)N[C@@H](CC(C)C)C(=O)[C@@]1(C)CO1 [Car, carfilzomib]",change of ex vivo drug sensitivity between biopsies at multiple time points,[1]; [4],significantly increased drug resistance
"Nc1cccc2c1CN(C1CCC(=O)NC1=O)C2=O (stereo not shown) [R, lenalidomide]",change of ex vivo drug sensitivity between biopsies at multiple time points,[1]; [4],significantly increased drug resistance
same,change of ex vivo drug sensitivity between biopsies at multiple time points,[1]; patient 700 (FIG. 5C),significantly increased drug resistance
"CC(C)C[C@H](NC(=O)[C@H](Cc1ccccc1)NC(=O)c1cnccn1)B(O)O [V, bortezomib]",change of ex vivo drug sensitivity between biopsies at multiple time points,[1]; patient 646 (FIG. 5F),lost isolated bortezomib sensitivity
"IL-6: interleukin-6, cytokine added to the culture, 2 ng/mL",MM cell viability loss in culture on IL-6 addition (FIG. 1B),[1]; ex vivo supplementation of culture,attenuated MM cell viability loss in culture for some patient samples
daratumumab,ex vivo response in samples from patients who had recently received Dara,"[1]; 20 nM, Dara-exposed patients (FIG. 6C)",ex vivo resistance was evident
same,"ex vivo activity, newly diagnosed versus relapsed samples","[1]; 20 nM, Dara-naïve patients (FIG. 6C)",very similar activity
same,ex vivo sensitivity in naïve patients compared to those with prior exposure,"[1]; 20 nM, P=0.003 (FIG. 6D)",significantly lower
same,ex vivo activity after addition of clodronate-containing liposomes (macrophage deactivation),[1]; 3/3 Dara-sensitive samples (FIG. 7D),partially blocked
same,dose response of viable MM cells (FIG. 6A),[1]; 48 hours ex vivo culture,dose dependent reduction in viable MM cells
same,viability of nonplasma cells (NPCs) in the cultures,[2],did not affect the viability
same,viability of plasma cells from BM aspirates from normal donors,[3],did not substantially reduce viability
